Assay: xn = mol fraction of the nth substance listed, in the solute-free solvent

CN1CCN(C(=O)OC2c3nccnc3C(=O)N2c2ccc(Cl)cn2)CC1 (stereo unspecified) + CC#N + O
solubility (g/100 g solution)
Details | x2 = 0.3 | x2 = 0.4 | x2 = 0.5 | x2 = 0.6 | x2 = 0.7 | x2 = 0.8 | x2 = 0.9
288.15 K | 0.593 | 1.13 | 2.08 | 2.78 | 3.27 | 3.38 | 2.87
298.15 K | 0.785 | 1.72 | 2.61 | 3.38 | 4.09 | 4.14 | 3.55
308.15 K | 0.997 | 2.11 | 3.4 | 4.41 | 5.3 | 5.38 | 4.63
318.15 K | 1.26 | 2.67 | 4.26 | 5.76 | 6.74 | 7.02 | 6.08
328.15 K | 1.77 | 3.23 | 5.56 | 7.47 | 8.64 | 8.93 | 8.18

COC(=O)C1=C(C)NC(C)=C(C(=O)OCC(C)C)C1c1ccccc1[N+](=O)[O-] (stereo unspecified) + CC#N + O
solubility (g/100 g solution)
Details | 278.15 K | 283.15 K | 288.15 K | 293.15 K | 298.15 K | 303.15 K | 308.15 K | 313.15 K | 318.15 K
x2 = 0.04651 | 0.165 | 0.218 | 0.288 | 0.377 | 0.488 | 0.61 | 0.767 | 0.973 | 1.21
x2 = 0.0989 | 0.678 | 0.855 | 1.1 | 1.36 | 1.7 | 2.08 | 2.53 | 3.12 | 3.73
x2 = 0.1583 | 1.3 | 1.62 | 2.02 | 2.51 | 3.07 | 3.73 | 4.57 | 5.46 | 6.5
x2 = 0.2264 | 2.08 | 2.58 | 3.1 | 3.86 | 4.65 | 5.62 | 6.61 | 7.85 | 9.2
x2 = 0.3051 | 2.84 | 3.54 | 4.32 | 5.15 | 6.3 | 7.5 | 8.79 | 10.4 | 12.1
x2 = 0.397 | 3.75 | 4.65 | 5.65 | 6.7 | 8.1 | 9.55 | 11.2 | 13.1 | 15.2
x2 = 0.506 | 4.72 | 5.77 | 6.86 | 8.3 | 9.96 | 11.8 | 13.7 | 15.7 | 18
x2 = 0.6372 | 5.69 | 6.77 | 8.36 | 9.95 | 11.7 | 13.6 | 15.7 | 18.2 | 20.7
x2 = 0.798 | 6.56 | 7.83 | 9.45 | 11.2 | 13.1 | 15.2 | 17.6 | 20.2 | 22.9

Cc1nc(CCl)nc2ccccc12 + CC(C)=O + CCCCCC
solubility (g/100 g solution)
Details | x2 = 0.144 | x2 = 0.266 | x2 = 0.403 | x2 = 0.556 | x2 = 0.729
281.15 K | 5.18 | 8.5 | 12.8 | 17.2 | 22.3
286.15 K | 6.57 | 10.8 | 15.5 | 21.2 | 27.1
291.15 K | 8.19 | 13.3 | 19.2 | 25.8 | 32.3
296.15 K | 10.3 | 16.2 | 22.9 | 30.4 | 39.2
301.15 K | 12.7 | 19.9 | 28.3 | 36.2 | 44.9
306.15 K | 15.6 | 23.9 | 33.3 | 42.4 | 51.9
311.15 K | 18.9 | 28.3 | 38.4 | 48.4 | 58.8
316.15 K | 22.5 | 33.1 | 43.7 | 54.6 | 65
321.15 K | 26.6 | 37.2 | 49 | 60.7 | 71
326.15 K | 30.9 | 42.9 | 54.4 | 65.4 | 75.5
331.15 K | 34.9 | 47.5 | 59 | 70.3 | 79.5

CN1CCN(C(=O)OC2c3nccnc3C(=O)N2c2ccc(Cl)cn2)CC1 (stereo unspecified) + CC(C)=O + O
solubility (g/100 g solution)
Details | x2 = 0.3 | x2 = 0.4 | x2 = 0.5 | x2 = 0.6 | x2 = 0.7 | x2 = 0.8 | x2 = 0.9
288.15 K | 0.188 | 0.322 | 0.515 | 0.825 | 1.17 | 1.47 | 1.48
298.15 K | 0.259 | 0.425 | 0.644 | 1.04 | 1.52 | 1.9 | 1.94
308.15 K | 0.354 | 0.615 | 1.04 | 1.46 | 1.99 | 2.44 | 2.5
318.15 K | 0.545 | 0.801 | 1.35 | 1.88 | 2.53 | 3.29 | 3.5
328.15 K | 0.752 | 1.18 | 1.75 | 2.51 | 3.5 | 4.63 | 4.6

O=[N+]([O-])c1cc[nH]n1 + CC(C)=O + O
solubility (g/100 g solution)
Details | 283.15 K | 288.15 K | 293.15 K | 298.15 K | 303.15 K | 308.15 K | 313.15 K | 318.15 K | 323.15 K
x2 = 0.03333 | 0.251 | 0.321 | 0.373 | 0.471 | 0.552 | 0.72 | 0.876 | 1.07 | 1.32
x2 = 0.07199 | 0.297 | 0.351 | 0.41 | 0.49 | 0.576 | 0.71 | 0.865 | 1.05 | 1.29
x2 = 0.1174 | 0.313 | 0.362 | 0.422 | 0.501 | 0.594 | 0.708 | 0.855 | 1.05 | 1.29
x2 = 0.1714 | 0.322 | 0.371 | 0.43 | 0.507 | 0.597 | 0.705 | 0.853 | 1.05 | 1.24
x2 = 0.2368 | 0.324 | 0.369 | 0.426 | 0.491 | 0.573 | 0.683 | 0.813 | 0.984 | 1.17
x2 = 0.3176 | 0.319 | 0.37 | 0.422 | 0.487 | 0.564 | 0.662 | 0.79 | 0.932 | 1.11
x2 = 0.42 | 0.324 | 0.366 | 0.414 | 0.476 | 0.543 | 0.637 | 0.749 | 0.871 | 0.999
x2 = 0.5538 | 0.306 | 0.354 | 0.398 | 0.457 | 0.527 | 0.614 | 0.722 | 0.873 | 1.02
x2 = 0.7363 | 0.299 | 0.349 | 0.397 | 0.461 | 0.515 | 0.576 | 0.678 | 0.794 | 0.916

O=c1ccc2ccccc2o1 + CC(C)=O + O
solubility (g/100 g solution)
Details | x2 = 0.1 | x2 = 0.2 | x2 = 0.3 | x2 = 0.4 | x2 = 0.5 | x2 = 0.6 | x2 = 0.7 | x2 = 0.8 | x2 = 0.9
268.15 K | 0.474 | 2.21 | 4.51 | 9.81 | 13.8 | 17.1 | 19.9 | 21.9 | 23.1
273.15 K | 0.611 | 2.81 | 6.5 | 11.9 | 16.8 | 20.6 | 23.7 | 25.8 | 26.9
278.15 K | 0.798 | 3.96 | 8.98 | 15.3 | 20.9 | 25 | 27.8 | 30.6 | 31.5
283.15 K | 1.05 | 5.18 | 12.2 | 19.5 | 25.5 | 30.2 | 33.1 | 35.3 | 36.2
288.15 K | 1.38 | 6.75 | 16.8 | 24.6 | 31.4 | 36 | 39.3 | 41.2 | 41.8
293.15 K | 1.8 | 9.24 | 22.3 | 31.3 | 38.5 | 42.9 | 46.2 | 47.7 | 48
298.15 K | 2.27 | 12.3 | 29.6 | 38.4 | 45.7 | 49.6 | 52.6 | 53.6 | 53.9
303.15 K | 2.96 | 16.8 | 37.4 | 47 | 53.9 | 57.2 | 59.4 | 59.8 | 59.8

CC(=O)Nc1ccc(OC(=O)c2ccccc2OC(C)=O)cc1 + CC(C)O + O
solubility (g/100 g solution)
Details | 278.15 K | 283.15 K | 288.15 K | 293.15 K | 298.15 K | 303.15 K | 308.15 K | 313.15 K | 318.15 K
x2 = 0.03225 | 0.00278 | 0.00407 | 0.0057 | 0.00819 | 0.0115 | 0.0161 | 0.0217 | 0.0296 | 0.0399
x2 = 0.06974 | 0.0072 | 0.0102 | 0.0142 | 0.0195 | 0.0268 | 0.0367 | 0.0481 | 0.0636 | 0.0846
x2 = 0.1139 | 0.015 | 0.0212 | 0.0289 | 0.0402 | 0.0537 | 0.0718 | 0.0958 | 0.126 | 0.162
x2 = 0.1666 | 0.0246 | 0.0342 | 0.0466 | 0.0633 | 0.0855 | 0.114 | 0.148 | 0.195 | 0.252
x2 = 0.2307 | 0.0358 | 0.0489 | 0.0678 | 0.0921 | 0.124 | 0.165 | 0.217 | 0.285 | 0.371
x2 = 0.3103 | 0.0475 | 0.0662 | 0.0897 | 0.123 | 0.163 | 0.215 | 0.29 | 0.374 | 0.488
x2 = 0.4117 | 0.0571 | 0.0787 | 0.109 | 0.148 | 0.197 | 0.26 | 0.341 | 0.445 | 0.574
x2 = 0.5454 | 0.0663 | 0.0911 | 0.125 | 0.167 | 0.221 | 0.295 | 0.381 | 0.494 | 0.642
x2 = 0.7297 | 0.0717 | 0.097 | 0.131 | 0.177 | 0.239 | 0.315 | 0.412 | 0.525 | 0.68

CS(=O)(=O)c1ccc(C(O)C(CF)NC(=O)C(Cl)Cl)cc1 (stereo unspecified) + CC(C)O + O
solubility (g/100 g solution)
Details | 278.15 K | 283.15 K | 288.15 K | 293.15 K | 298.15 K | 303.15 K | 308.15 K | 313.15 K | 318.15 K
x2 = 0.03225 | 0.082 | 0.109 | 0.146 | 0.189 | 0.246 | 0.32 | 0.403 | 0.515 | 0.641
x2 = 0.06974 | 0.117 | 0.159 | 0.216 | 0.278 | 0.362 | 0.488 | 0.613 | 0.798 | 1
x2 = 0.1139 | 0.16 | 0.215 | 0.286 | 0.379 | 0.504 | 0.64 | 0.828 | 1.06 | 1.35
x2 = 0.1666 | 0.199 | 0.266 | 0.353 | 0.472 | 0.608 | 0.787 | 1.01 | 1.29 | 1.64
x2 = 0.2307 | 0.237 | 0.317 | 0.422 | 0.56 | 0.717 | 0.931 | 1.19 | 1.5 | 1.88
x2 = 0.3103 | 0.276 | 0.367 | 0.481 | 0.629 | 0.81 | 1.05 | 1.34 | 1.67 | 2.1
x2 = 0.4117 | 0.296 | 0.398 | 0.516 | 0.669 | 0.873 | 1.14 | 1.42 | 1.78 | 2.24
x2 = 0.5454 | 0.308 | 0.411 | 0.536 | 0.702 | 0.9 | 1.16 | 1.47 | 1.89 | 2.32
x2 = 0.7297 | 0.309 | 0.407 | 0.537 | 0.697 | 0.911 | 1.14 | 1.47 | 1.84 | 2.29

— the CheMixHub drug solubility set
